Data from PMC6270595, “Synthesis and Cytotoxicity of Novel 10-Substituted Dihydroartemisinin Derivatives Containing N-Arylphenyl-ethenesulfonamide Groups” (Molecules, 2013).
Where two headings read alike, the source gives them in different places.

Assays:
[1] = system: MDA-MB-231 (human breast cancer); test: MTT cytotoxicity assay, MDA-MB-231; assay type: cell-based; details: MDA-MB-231 cells, 50% cell growth inhibition after 72 h of drug exposure
Experimental: (§1) The cytotoxic activities of target compounds were evaluated against HT-29 (human colon cancer), MDA-MB-231 (human breast cancer), U87MG (human glioblastoma), H460 (human lung cancer), A549 (non-small-cell lung adenocarcinoma), HL-60 (human leukemic) cancer cell lines and one normal cell line WI-38 (human fetal lung fibroblasts) together with references DHA and cisplatin by a MTT assay.
(§2) The cytotoxic activities of compounds 3a–h and 6a–j were evaluated with the HT-29, MDA-MB-231, U87MG, H460, A549, HL-60 cancer cell lines and one normal cell line, WI-38, by the standard MTT assay in vitro [20], with DHA as the positive control. The cell lines were cultured in minimum essential medium (MEM) supplement with 10% fetal bovine serum (FBS). Approximately 4 × 10^3 cells, suspended in MEM medium, were plated on to each well of a 96-well plate and incubated in 5% CO2 at 37 °C for 24 h. The test compounds at indicated final concentrations were added to the culture medium and the cell cultures were continued for 72 h. Fresh MTT was added to each well at a terminal concentration of 5 μg/mL and incubated with cells at 37 °C for 4 h. The formazan crystals were dissolved in 100 μL DMSO each well, and the absorbency at 492 nm (for absorbance of MTT formazan) and 630 nm (for the reference wavelength) was measured with the ELISA reader. All of the compounds were tested twice in each of the cell lines. The results expressed as IC50 (inhibitory concentration 50%) were the averages of two determinations and calculated using the Bacus Laboratories Incorporated Slide Scanner (Bliss) software.

[2] = system: HT-29 (human colon cancer); test: MTT cytotoxicity assay, HT-29; assay type: cell-based; details: HT-29 cells, 50% cell growth inhibition after 72 h of drug exposure, read-out: IC50(μM) HT29
Experimental: as §1, §2

[3] = system: U87MG (human glioblastoma); test: MTT cytotoxicity assay, U87MG; assay type: cell-based; details: for IC50: U87MG cells, 50% cell growth inhibition after 72 h of drug exposure, MTT
Experimental: as §1, §2

H460 (human lung cancer) = test: MTT cytotoxicity assay, H460; assay type: cell-based; details: for IC50: H460 cells, 50% cell growth inhibition after 72 h of drug exposure, MTT
Experimental: as §1, §2

[4] = system: A549 (non-small-cell lung adenocarcinoma); test: MTT cytotoxicity assay, A549; assay type: cell-based, human; details: A549 cells, 50% cell growth inhibition after 72 h of drug exposure
Experimental: as §1, §2

HL-60 (human leukemic) = test: MTT cytotoxicity assay, HL-60; assay type: cell-based; details: for IC50: HL-60 cells, 50% cell growth inhibition after 72 h of drug exposure, MTT
Experimental: as §1, §2

[5] = system: WI-38 (human fetal lung fibroblasts); test: MTT cytotoxicity assay, normal cell line WI-38; assay type: cell-based; details: normal WI-38 cells, 50% cell growth inhibition after 72 h of drug exposure, read-out: IC50(μM) WI38
Experimental: as §1, §2

Row | Structure (SMILES) | melting point [°C] | IC50 [1] [µM] | IC50 [2] [µM] | IC50 [3] [µM] | IC50 (H460 (human lung cancer)) [µM] | IC50 [4] [µM] | IC50 (HL-60 (human leukemic)) [µM] | IC50 [5] [µM] | IC50 ([1]; Homo sapiens) [µM] | IC50 ([2]; Homo sapiens) [µM] | IC50 ([3]; Homo sapiens, U-87 MG) [µM] | IC50 (H460 (human lung cancer); Homo sapiens, NCI-H460) [µM] | IC50 ([4]; Homo sapiens) [µM] | IC50 (HL-60 (human leukemic); Homo sapiens) [µM] | IC50 ([5]; Homo sapiens) [µM] | activity fold higher than that of benzamide analog 6c ([3]; U87MG, versus 6c) [fold] | activity fold higher than that of benzamide analog 6c (H460 (human lung cancer); H460, versus 6c) [fold] | activity fold higher than that of benzamide analog 6c (HL-60 (human leukemic); HL-60, versus 6c) [fold] | selectivity index (IC50 normal cell/IC50 cancer cell) (HL-60 (human leukemic); WI-38 normal cells versus HL-60)
1 | N.N.[Cl][Pt][Cl] [Cisplatin, cisplatin, reference compound] |  | 6.82 | 10.3 | 8.21 | 7.55 | 4.31 | 9.28 | 51.2 |  |  |  |  |  |  |  |  |  |  | 
2 | C[C@@H]1CC[C@H]2[C@@H](C)C(OCCOc3ccc(/C=C/S(=O)(=O)Nc4ccccc4Cl)cc3)O[C@@H]3O[C@@]4(C)CC[C@@H]1[C@]32OO4 (stereo partly drawn) [Compound 3g, (E)-2-(4-(2-(10β-Dihydroartemisinoxy)ethoxy)phenyl)-N-(2-chlorophenyl)ethenesulfonamide] | 141 to 143 |  |  |  |  |  |  |  | 0.93 | 0.55 | 1.78 | 2.53 | 3.05 | 0.17 | 16.3 |  |  |  | 
3 | C[C@@H]1CC[C@H]2[C@@H](C)C(OCCNC(=O)c3ccc(COc4ccc(/C=C/S(=O)(=O)Nc5ccc(OC(F)(F)F)cc5)cc4)cc3)O[C@@H]3O[C@@]4(C)CC[C@@H]1[C@]32OO4 (stereo partly drawn) [Compound 6c, (E)-N-(2-(10β-Dihydroartemisinoxy)ethyl)-4((4-(2-(N-(4-trifluoromethoxyphenyl)sulfamoyl)vinyl)phenoxy)methyl)benzamide] |  |  |  |  |  |  |  |  | 0.49 | 0.29 | 3.71 | 2.7 | 1.57 | 0.09 | 28.2 |  |  |  | 
4 | C[C@H]1[C@@H](O)O[C@@H]2O[C@@]3(C)CC[C@H]4[C@H](C)CC[C@@H]1[C@@]24OO3 [DHA, dihydroartemisinin] |  |  |  |  |  |  |  |  | 9.8 | 5.6 | 15.8 | 12.4 | 10.1 | 5.29 | > 100 |  |  |  | 
5 | C[C@@H]1CC[C@H]2[C@@H](C)C(OCCOc3ccc(/C=C/S(=O)(=O)Nc4ccccc4)cc3)O[C@@H]3O[C@@]4(C)CC[C@@H]1[C@]32OO4 (stereo partly drawn) [Compound 3a, (E)-2-(4-(2-(10β-Dihydroartemisinoxy)ethoxy)phenyl)-N-phenylethenesulfonamide] | 136 to 138 |  |  |  |  |  |  |  | 2 | 0.68 | 3.97 | 5.38 | 2.16 | 1.25 | 16.8 |  |  |  | 
6 | C[C@@H]1CC[C@H]2[C@@H](C)C(OCCOc3ccc(/C=C/S(=O)(=O)Nc4ccc(Cl)cc4)cc3)O[C@@H]3O[C@@]4(C)CC[C@@H]1[C@]32OO4 (stereo partly drawn) [Compound 3f, (E)-2-(4-(2-(10β-Dihydroartemisinoxy)ethoxy)phenyl)-N-(4-chlorophenyl)ethenesulfonamide] | 138 to 141 |  |  |  |  |  |  |  | 1.04 | 0.42 | 0.79 | 1.41 | 3.52 | 0.08 | 19.9 |  |  |  | 
7 | Cc1ccc(F)c(NS(=O)(=O)/C=C/c2ccc(OCCOC3O[C@@H]4O[C@@]5(C)CC[C@H]6[C@H](C)CC[C@@H]([C@H]3C)[C@@]46OO5)cc2)c1 (stereo partly drawn) [Compound 3d, (E)-2-(4-(2-(10β-Dihydroartemisinoxy)ethoxy)phenyl)-N-(2-fluoro-5-methylphenyl)ethenesulfonamide] | 138 to 140 |  |  |  |  |  |  |  | 1.27 | 1.78 | 5.71 | 4.29 | 3.64 | 0.84 | 20.5 |  |  |  | 
8 | C[C@@H]1CC[C@H]2[C@@H](C)C(OCCOc3ccc(/C=C/S(=O)(=O)Nc4ccc(OC(F)(F)F)cc4)cc3)O[C@@H]3O[C@@]4(C)CC[C@@H]1[C@]32OO4 (stereo partly drawn) [Compound 3c, (E)-2-(4-(2-(10β-Dihydroartemisinoxy)ethoxy)phenyl)-N-(4-trifluoromethoxyphenyl)ethenesulfonamide] |  |  |  |  |  |  |  |  | 0.39 | 0.2 | 1.59 | 0.97 | 2.11 | 0.05 | 37.5 | 2 | 3 | 2 | 750

The next lines start with results.

Row | melting point [°C] | Structure (SMILES) | IC50 [1] [µM] | IC50 [2] [µM] | IC50 [3] [µM] | IC50 (H460 (human lung cancer)) [µM] | IC50 [4] [µM] | IC50 (HL-60 (human leukemic)) [µM] | IC50 [5] [µM] | IC50 ([1]; Homo sapiens) [µM] | IC50 ([2]; Homo sapiens) [µM] | IC50 ([3]; Homo sapiens, U-87 MG) [µM] | IC50 (H460 (human lung cancer); Homo sapiens, NCI-H460) [µM] | IC50 ([4]; Homo sapiens) [µM] | IC50 (HL-60 (human leukemic); Homo sapiens) [µM] | IC50 ([5]; Homo sapiens) [µM] | activity fold higher than that of benzamide analog 6c ([3]; U87MG, versus 6c) [fold] | activity fold higher than that of benzamide analog 6c (H460 (human lung cancer); H460, versus 6c) [fold] | activity fold higher than that of benzamide analog 6c (HL-60 (human leukemic); HL-60, versus 6c) [fold] | selectivity index (IC50 normal cell/IC50 cancer cell) (HL-60 (human leukemic); WI-38 normal cells versus HL-60)
9 | 135 to 137 | Cc1ccc(F)c(NS(=O)(=O)/C=C/c2ccc(OCc3ccc(C(=O)NCCOC4O[C@@H]5O[C@@]6(C)CC[C@H]7[C@H](C)CC[C@@H]([C@H]4C)[C@@]57OO6)cc3)cc2)c1 (stereo partly drawn) [Compound 6d, (E)-N-(2-(10β-Dihydroartemisinoxy)ethyl)-4((4-(2-(N-(2-fluoro-5-methylphenyl)sulfamoyl)vinyl)phenoxy)methyl)benzamide] |  |  |  |  |  |  |  | 1.33 | 1.82 | 17.2 | 10.9 | 9.72 | 1.3 | 19.3 |  |  |  | 
10 | 151 to 153 | C[C@@H]1CC[C@H]2[C@@H](C)C(OCCNC(=O)c3ccc(COc4ccc(/C=C/S(=O)(=O)Nc5c(Cl)cccc5Cl)cc4)cc3)O[C@@H]3O[C@@]4(C)CC[C@@H]1[C@]32OO4 (stereo partly drawn) [Compound 6h, (E)-N-(2-(10β-Dihydroartemisinoxy)ethyl)-4((4-(2-(N-(2,6-dichlorophenyl)sulfamoyl)vinyl)phenoxy)methyl)benzamide] |  |  |  |  |  |  |  | 0.88 | 0.44 | 3.12 | 1.21 | 2.34 | 0.18 | 23.5 |  |  |  | 
11 | 146 to 149 | C[C@@H]1CC[C@H]2[C@@H](C)C(OCCNC(=O)c3ccc(COc4ccc(/C=C/S(=O)(=O)Nc5cccc(Cl)c5)cc4)cc3)O[C@@H]3O[C@@]4(C)CC[C@@H]1[C@]32OO4 (stereo partly drawn) [Compound 6b, (E)-N-(2-(10β-Dihydroartemisinoxy)ethyl)-4((4-(2-(N-(3-chlorophenyl)sulfamoyl)vinyl)phenoxy)methyl)benzamide] |  |  |  |  |  |  |  | 2.23 | 1.11 | 4.52 | 2.79 | 2.86 | 1.81 | 35.8 |  |  |  | 
12 | 138 to 141 | C[C@@H]1CC[C@H]2[C@@H](C)C(OCCNC(=O)c3ccc(COc4ccc(/C=C/S(=O)(=O)Nc5ccc(Cl)cc5)cc4)cc3)O[C@@H]3O[C@@]4(C)CC[C@@H]1[C@]32OO4 (stereo partly drawn) [Compound 6f, (E)-N-(2-(10β-Dihydroartemisinoxy)ethyl)-4((4-(2-(N-(4-chlorophenyl)sulfamoyl)vinyl)phenoxy)methyl)benzamide] |  |  |  |  |  |  |  | 2.38 | 0.92 | 1.59 | 1.77 | 5.72 | 1.33 | 24.7 |  |  |  | 
13 | 144 to 145 | COc1cccc(NS(=O)(=O)/C=C/c2ccc(OCc3ccc(C(=O)NCCOC4O[C@@H]5O[C@@]6(C)CC[C@H]7[C@H](C)CC[C@@H]([C@H]4C)[C@@]57OO6)cc3)cc2)c1 (stereo partly drawn) [Compound 6i, (E)-N-(2-(10β-Dihydroartemisinoxy)ethyl)-4((4-(2-(N-(3-methoxyphenyl)sulfamoyl)vinyl)phenoxy)methyl)benzamide] |  |  |  |  |  |  |  | 8.89 | 8.95 | > 100 | 16.3 | 11.3 | 8.53 | 19.2 |  |  |  | 
14 | 147 to 150 | C[C@@H]1CC[C@H]2[C@@H](C)C(OCCNC(=O)c3ccc(COc4ccc(/C=C/S(=O)(=O)Nc5ccccc5Cl)cc4)cc3)O[C@@H]3O[C@@]4(C)CC[C@@H]1[C@]32OO4 (stereo partly drawn) [Compound 6g, (E)-N-(2-(10β-Dihydroartemisinoxy)ethyl)-4((4-(2-(N-(2-chlorophenyl)sulfamoyl)vinyl)phenoxy)methyl)benzamide] |  |  |  |  |  |  |  | 0.72 | 0.45 | 2.69 | 0.89 | 5.31 | 0.27 | 27.2 |  |  |  | 
